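Cultured in 96-well plates, cells were exposed to test compound for 48 hours across five concentrations. GI50 is the concentration that inhibits growth by half.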 Active and inactive are the calls of the source. Cut-off read from the data, not from the text of the source: active = GI50 up to about 1.1 µM and inactive = higher. Where a SMILES comes first, the peptide text is derived from it. The star is where a group is joined. Boc = CC(C)(C)OC(=O)* Bounds are passed on as bounds.

Among the test systems are DMS-273; HCC 2998; KM-20L2; M14; M19-MEL; RXF 393; SF-539; SK-MEL-2; TK-10; ACHN; DU-145; MCF7; MDA-MB-231; SR; T47D; 786-0; A498; NCI-H226; DLD-1.
Holding throughout (test): NCI-60 cell line screen, 48 h

Turning to `c1ccc(-c2nnc(-c3nsc4ccccc34)o2)cc1`, the GI50 in the assay with DMS-273, with HCC 2998, in the assay with KM-20L2, in the assay with M14, with M19-MEL and with RXF 393 was > 100 µM (inactive) each time. For the same compound, the GI50 with SF-539, in the assay with SK-MEL-2 and with TK-10 was > 100 µM (inactive) throughout.

With `CC(C)(C)OC(=O)NC(Cc1ccccc1)C(=O)N1CCCC1C(N)=O` (stereo not drawn) (Boc-Phe-Pro-NH2; configuration not given here), the GI50 with ACHN, in the assay on DU-145, in the assay with HCC 2998, in the assay on M14, with MCF7 and in the assay on MDA-MB-231 was > 100 µM (inactive) each time. In addition, the GI50 with SR, with T47D and in the assay with TK-10 was > 100 µM (inactive) throughout.

With `CCCN(CCC)c1cc2c(cc1F)c(=O)c(C(=O)O)cn2-c1ccc(N2CCN(C)CC2)cn1`, the GI50 was 15.8 µM (inactive) in the assay on 786-0; 19.8 µM (inactive) in the assay with A498; 19.5 µM (inactive) in the assay on DU-145; 16.9 µM (inactive) with M14; 14.9 µM (inactive) in the assay with MCF7; 13.5 µM (inactive) with MDA-MB-231. Besides, the GI50 in the assay with NCI-H226 is 16.7 µM (inactive); with RXF 393 it was 18.7 µM (inactive); in the assay with SF-539 it was 17.1 µM (inactive); with SR, 15.7 µM (inactive); with T47D, 17 µM (inactive); in the assay with TK-10 it was 10.4 µM (inactive).

As to `COc1ccc(-c2cc(O)c3ccc(C)nc3n2)cc1`, the GI50 was 65.6 µM (inactive) in the assay with A498; > 100 µM (inactive) with ACHN; > 100 µM (inactive) with DU-145; > 100 µM (inactive) with HCC 2998; > 100 µM (inactive) with M14; > 100 µM (inactive) in the assay on MCF7. For the same compound, the GI50 with MDA-MB-231 was > 100 µM (inactive); in the assay on NCI-H226, > 100 µM (inactive); in the assay with RXF 393, > 100 µM (inactive); with SF-539, > 100 µM (inactive); with SK-MEL-2 it was > 100 µM (inactive); in the assay on T47D it was 96.8 µM (inactive). Further, the GI50 in the assay on TK-10 is > 100 µM (inactive).

For the compound `CN1CCC(C(O)(c2ccccc2)c2ccc(Br)cc2)CC1` (configuration not stated), the GI50 with 786-0 is 14.4 µM (inactive); in the assay with ACHN, 31.2 µM (inactive); in the assay with DU-145, 81.5 µM (inactive); with HCC 2998 it was 12.6 µM (inactive); in the assay on M14, 15.3 µM (inactive); in the assay with MCF7, 22.6 µM (inactive). The GI50 in the assay with MDA-MB-231 is 14.7 µM (inactive); in the assay on NCI-H226 it was 21.8 µM (inactive); in the assay on RXF 393 it was 18.3 µM (inactive); with SF-539, 17.6 µM (inactive); in the assay with SK-MEL-2, 16.2 µM (inactive); with SR, 17.5 µM (inactive). Further, the GI50 with T47D was 23 µM (inactive); in the assay with TK-10, 25.9 µM (inactive).

Consider `COc1cc(O)c2c(=O)cc(C3(O)C=CC(=O)C=C3)oc2c1`, for which the GI50 in the assay with A498 was 4.05 µM (inactive); with ACHN, < 0.045 µM (active); in the assay on DU-145, 0.839 µM (active); in the assay on HCC 2998, 0.535 µM (active); in the assay with M14, 0.542 µM (active); in the assay on MDA-MB-231, 0.327 µM (active). For the same compound, the GI50 was 0.394 µM (active) in the assay on NCI-H226; 3.44 µM (inactive) in the assay on RXF 393; < 0.01 µM (active) with SF-539; 0.619 µM (active) in the assay with SK-MEL-2; < 0.01 µM (active) in the assay with SR; 0.378 µM (active) with T47D. Further, in the assay on TK-10, the GI50 was 0.0658 µM (active).

For the compound `O=C(NN1C(=O)C(Cl)C1c1ccccc1O)c1ccccc1O` (configuration not stated), the GI50 with KM-20L2 was 4.51 µM (inactive); in the assay with M14, 18.3 µM (inactive); in the assay on RXF 393, 63.5 µM (inactive); with SF-539, 16.3 µM (inactive); with SK-MEL-2, 19.8 µM (inactive); in the assay with SR it was 17.8 µM (inactive). The GI50 in the assay on TK-10 was 47.5 µM (inactive).

Turning to `CCOCNC(=O)N(COCC)COCC`, the GI50 with A498, in the assay on ACHN, in the assay with DLD-1, in the assay with HCC 2998, in the assay with KM-20L2 and in the assay with M14 was > 100 µM (inactive) each time. Further, the GI50 in the assay on M19-MEL, in the assay on NCI-H226, in the assay with SF-539 and in the assay with SK-MEL-2 was > 100 µM (inactive) each time.

Regarding `CC(Cc1ccccc1)Nc1ncnc2c1ncn2C1OC(CO)CC1O` (configuration not stated), the GI50 in the assay on 786-0, in the assay with A498, in the assay on ACHN, in the assay on DU-145, in the assay with HCC 2998 and with M14 was > 100 µM (inactive) in each case. Also, the GI50 in the assay on MCF7 was 0.611 µM (active); in the assay on MDA-MB-231, > 100 µM (inactive); with NCI-H226 it was > 100 µM (inactive); in the assay with RXF 393, > 100 µM (inactive); with SK-MEL-2, > 100 µM (inactive); with T47D, > 100 µM (inactive). Further, in the assay on TK-10, the GI50 is > 100 µM (inactive).

For `CCOC(=O)C(Cc1ccc(N=NN(C)C)cc1)NC(=O)CC1c2ccccc2-c2ccccc21` (configuration not stated), the GI50 is 82.4 µM (inactive) in the assay on 786-0; > 100 µM (inactive) in the assay with A498; 35.6 µM (inactive) in the assay with ACHN; 48.1 µM (inactive) in the assay on DLD-1; 55.3 µM (inactive) in the assay on DMS-273; > 100 µM (inactive) with HCC 2998. The GI50 is > 100 µM (inactive) in the assay on M14; 49.3 µM (inactive) with M19-MEL; > 100 µM (inactive) with NCI-H226; > 100 µM (inactive) in the assay with SF-539; > 100 µM (inactive) in the assay on SK-MEL-2; 48.9 µM (inactive) with SR. Also, the GI50 in the assay on TK-10 is > 100 µM (inactive).

In the case of `CSc1nc2c(c(N3CCOCC3)n1)C(O)n1c(nc3ccccc31)S2` (configuration not stated), the GI50 with 786-0 was 44.3 µM (inactive); with A498, 97.1 µM (inactive); in the assay on ACHN, 36.6 µM (inactive); in the assay with DU-145, > 100 µM (inactive); in the assay with HCC 2998 it was > 100 µM (inactive); in the assay on M14, > 100 µM (inactive). The GI50 was 23 µM (inactive) with MCF7; 50.2 µM (inactive) in the assay on MDA-MB-231; 80.4 µM (inactive) in the assay with RXF 393; 3.8 µM (inactive) in the assay on SF-539; 29.7 µM (inactive) in the assay with SK-MEL-2; 51.2 µM (inactive) in the assay on SR. Besides, the results for the GI50 in the assay with T47D and with TK-10 were 25.9 µM (inactive) and 47.5 µM (inactive), respectively.

Consider `CCc1c(O)c2c(c(O)c1C(C)=O)C(=O)c1c(cc(O)c(C(=O)O)c1C(=O)O)C2=O`, for which the GI50 in the assay with 786-0, with A498, with ACHN, with DU-145, in the assay with HCC 2998 and with M14 was > 100 µM (inactive) each time. Further, the GI50 in the assay with MCF7, with MDA-MB-231, in the assay with NCI-H226, with RXF 393, in the assay on SF-539 and in the assay with SK-MEL-2 was > 100 µM (inactive) each time. The GI50 in the assay on SR, in the assay with T47D and with TK-10 was > 100 µM (inactive) each time.

Consider `COc1cccc2c(Nc3ccc(S(=O)(=O)Nc4ncccn4)cc3)c3ccc([N+](=O)[O-])cc3nc12`, for which the GI50 in the assay on 786-0 was 23.6 µM (inactive); with A498, > 100 µM (inactive); in the assay with ACHN it was 7.06 µM (inactive); with DU-145, 19.5 µM (inactive); in the assay on HCC 2998, 67 µM (inactive); in the assay with M14 it was 45.1 µM (inactive). For the same compound, the GI50 with MCF7 is 47.1 µM (inactive); in the assay on MDA-MB-231 it was 38.7 µM (inactive); with NCI-H226 it was 38.7 µM (inactive); in the assay on RXF 393, 60.8 µM (inactive); in the assay on SF-539 it was 37.8 µM (inactive); with SK-MEL-2, 89.9 µM (inactive). Besides, the GI50 is 1.95 µM (inactive) with SR, 8.22 µM (inactive) in the assay on T47D and > 100 µM (inactive) with TK-10.

For the compound `NC(C/C=C/P(=O)(O)O)C(=O)O` (configuration not stated), the GI50 in the assay on ACHN, with DU-145, in the assay on HCC 2998, in the assay with M14, in the assay with MCF7 and in the assay on MDA-MB-231 was > 100 µM (inactive) each time. The GI50 with RXF 393, in the assay on SF-539, with SK-MEL-2, with SR, in the assay on T47D and in the assay with TK-10 was > 100 µM (inactive) throughout.

Turning to `Cc1cnc(Cl)nc1C(C#N)c1nc2ccccc2s1` (configuration not stated), the GI50 in the assay with 786-0 was 15.7 µM (inactive); with A498, 25.2 µM (inactive); in the assay with ACHN, 18.7 µM (inactive); in the assay on DU-145, 31.8 µM (inactive); with M14, 28 µM (inactive); in the assay on MDA-MB-231 it was 40.9 µM (inactive). In addition, the GI50 in the assay with NCI-H226 was 14.7 µM (inactive); in the assay with RXF 393, 17.2 µM (inactive); in the assay on SF-539 it was 25.8 µM (inactive); with T47D it was 34.1 µM (inactive); in the assay on TK-10, 24.8 µM (inactive).

For `CC1C2CC(CC2O)C1(C)C` (configuration not stated), the GI50 in the assay on 786-0, in the assay with A498, in the assay with ACHN, in the assay on DU-145, in the assay on M14 and in the assay on MDA-MB-231 was > 100 µM (inactive) in each case. The GI50 with NCI-H226, with RXF 393, with SF-539, with SR, in the assay with T47D and in the assay on TK-10 was > 100 µM (inactive) throughout.

Values taken from ChEMBL document CHEMBL1201862, “PubChem BioAssay data set” (2004).
